Reference: patent publication US8097722B2 (priority 2008, dated 2012)

Columns and labels:
liver PMPMEase = format: biochemical, porcine
brain PMPMEase = format: biochemical, porcine
Further: test concentration or dose not given here.

CCOC(=O)CC(SP(=O)(OC)OC)C(=O)OCC (centres unmarked) [Malaoxon]
Liver Mean (mean percent inhibition relative to the controls) (liver PMPMEase): 87%
Brain Mean (mean percent inhibition relative to the controls) (brain PMPMEase): 51%

CCOC(=O)CC(SP(=S)(OC)OC)C(=O)OCC (centres unmarked) [Malathion]
Liver Mean (mean percent inhibition relative to the controls) (liver PMPMEase): 53%
Brain Mean (mean percent inhibition relative to the controls) (brain PMPMEase): 51%

CCOP(=O)(N=C1SCC(C)S1)OCC (centres unmarked) [Mephosfolan]
Liver Mean (mean percent inhibition relative to the controls) (liver PMPMEase): 100%

COC(=O)/C(C)=C/OP(=S)(OC)OC [Methacrifos]
Liver Mean (mean percent inhibition relative to the controls) (liver PMPMEase): 87%
Brain Mean (mean percent inhibition relative to the controls) (brain PMPMEase): 61%

COP(N)(=O)SC (centres unmarked) [Methamidophos]
Liver Mean (mean percent inhibition relative to the controls) (liver PMPMEase): 45%
Brain Mean (mean percent inhibition relative to the controls) (brain PMPMEase): 24%

COc1nn(CSP(=S)(OC)OC)c(=O)s1 [Methidathion]
Liver Mean (mean percent inhibition relative to the controls) (liver PMPMEase): 78%
Brain Mean (mean percent inhibition relative to the controls) (brain PMPMEase): 56%

COP(=S)(OC)Oc1ccc([N+](=O)[O-])cc1 [Methyl-Parathion]
Liver Mean (mean percent inhibition relative to the controls) (liver PMPMEase): 100%
Brain Mean (mean percent inhibition relative to the controls) (brain PMPMEase): 75%

CNC(=O)CSP(=O)(OC)OC [Omethoate]
Liver Mean (mean percent inhibition relative to the controls) (liver PMPMEase): 12%
Brain Mean (mean percent inhibition relative to the controls) (brain PMPMEase): 33%

CCOP(=O)(NC(C)C)Oc1ccc(SC)c(C)c1 (centres unmarked) [Phenamiphos]
Liver Mean (mean percent inhibition relative to the controls) (liver PMPMEase): 92%

CCOC(=O)C(SP(=S)(OC)OC)c1ccccc1 (centres unmarked) [Phenthoate]
Liver Mean (mean percent inhibition relative to the controls) (liver PMPMEase): 96%
Brain Mean (mean percent inhibition relative to the controls) (brain PMPMEase): 55%

CCOP(=S)(OCC)SCn1c(=O)oc2cc(Cl)ccc21 [Phosalone]
Liver Mean (mean percent inhibition relative to the controls) (liver PMPMEase): 79%
Brain Mean (mean percent inhibition relative to the controls) (brain PMPMEase): 62%

COC(=O)/C=C(\C)OP(=O)(OC)OC [Phosdrin]
Liver Mean (mean percent inhibition relative to the controls) (liver PMPMEase): 70%
Brain Mean (mean percent inhibition relative to the controls) (brain PMPMEase): 67%

CCN(CC)C(=O)/C(Cl)=C(/C)OP(=O)(OC)OC [Phosphamidon]
Liver Mean (mean percent inhibition relative to the controls) (liver PMPMEase): 69%
Brain Mean (mean percent inhibition relative to the controls) (brain PMPMEase): 53%

CCN(CC)c1nc(C)cc(OP(=S)(OC)OC)n1 [Pirimiphos-M]
Liver Mean (mean percent inhibition relative to the controls) (liver PMPMEase): 79%
Brain Mean (mean percent inhibition relative to the controls) (brain PMPMEase): 42%

CCCSP(=O)(OCC)Oc1ccc(Br)cc1Cl (centres unmarked) [Profenofos]
Liver Mean (mean percent inhibition relative to the controls) (liver PMPMEase): 97%
Brain Mean (mean percent inhibition relative to the controls) (brain PMPMEase): 81%

CCCSP(=O)(OCC)Oc1cnn(-c2ccc(Cl)cc2)c1 (centres unmarked) [Pyraclofos]
Liver Mean (mean percent inhibition relative to the controls) (liver PMPMEase): 95%
Brain Mean (mean percent inhibition relative to the controls) (brain PMPMEase): 82%

COP(=S)(OC)Oc1cc(Cl)c(Cl)cc1Cl [Ronnel]
Liver Mean (mean percent inhibition relative to the controls) (liver PMPMEase): 93%
Brain Mean (mean percent inhibition relative to the controls) (brain PMPMEase): 45%

CNP(=S)(OC)O/C(C)=C/C(=O)OC(C)C (centres unmarked) [Safrotin]
Liver Mean (mean percent inhibition relative to the controls) (liver PMPMEase): 54%
Brain Mean (mean percent inhibition relative to the controls) (brain PMPMEase): 52%

CCOP(=S)(OCC)OP(=S)(OCC)OCC [Sulfotep]
Liver Mean (mean percent inhibition relative to the controls) (liver PMPMEase): 97%
Brain Mean (mean percent inhibition relative to the controls) (brain PMPMEase): 47%

CCOP(=S)(OCC)SCSC(C)(C)C [Terbufos]
Liver Mean (mean percent inhibition relative to the controls) (liver PMPMEase): 72%
Brain Mean (mean percent inhibition relative to the controls) (brain PMPMEase): 100%

COP(=O)(OC)O/C(=C/Cl)c1cc(Cl)c(Cl)cc1Cl [Tetrachlorvinphos]
Liver Mean (mean percent inhibition relative to the controls) (liver PMPMEase): 91%
Brain Mean (mean percent inhibition relative to the controls) (brain PMPMEase): 100%

CCCSP(=S)(OCC)Oc1ccc(Cl)cc1Cl (centres unmarked) [Tokuthion]
Liver Mean (mean percent inhibition relative to the controls) (liver PMPMEase): 76%
Brain Mean (mean percent inhibition relative to the controls) (brain PMPMEase): 100%

CNC(=O)C(C)SCCSP(=O)(OC)OC (centres unmarked) [Vamidothion]
Liver Mean (mean percent inhibition relative to the controls) (liver PMPMEase): 55%

Acephate
Liver Mean (mean percent inhibition relative to the controls) (liver PMPMEase): NO INHIBITION
Brain Mean (mean percent inhibition relative to the controls) (brain PMPMEase): 50%

Dicrotophos
Liver Mean (mean percent inhibition relative to the controls) (liver PMPMEase): 56%

Edifenphos
Liver Mean (mean percent inhibition relative to the controls) (liver PMPMEase): 97%
Brain Mean (mean percent inhibition relative to the controls) (brain PMPMEase): 81%

Heptenophos
Liver Mean (mean percent inhibition relative to the controls) (liver PMPMEase): 96%
Brain Mean (mean percent inhibition relative to the controls) (brain PMPMEase): 71%

Monocrotophos
Liver Mean (mean percent inhibition relative to the controls) (liver PMPMEase): 18%
Brain Mean (mean percent inhibition relative to the controls) (brain PMPMEase): 30%

Prothiofos
Liver Mean (mean percent inhibition relative to the controls) (liver PMPMEase): 52%
Brain Mean (mean percent inhibition relative to the controls) (brain PMPMEase): 6%

Trichlorfon
Liver Mean (mean percent inhibition relative to the controls) (liver PMPMEase): 91%
Brain Mean (mean percent inhibition relative to the controls) (brain PMPMEase): 100%
